According to ChEMBL document CHEMBL1122782, “Bulky amine analogues of ketoprofen: potent antiinflammatory agents” (J Med Chem, 1984):

Experiments:
Format in all cases: functional
Rattus norvegicus [1] = experiment: The mean increase in paw volume was compared between drug treated groups and placebo to calculate the percent inhibition in rats at 0.02 mmol/kg by carrageenan Edema Assay; 0-19
Rattus norvegicus [2] = experiment: The mean increase in paw volume was compared between drug treated groups and placebo to calculate the percent inhibition in rats at 0.08 mmol/kg by carrageenan Edema Assay; 30-39
Rattus norvegicus [3] = experiment: The percent inhibition was calculated from the average differences in hind paw volume between the adjuvant injected controls and the adjuvant-injected medicated rats at 0.08 mmol/kg; 90-99
Rattus norvegicus [4] = experiment: The mean increase in paw volume was compared between drug treated groups and placebo to calculate the percent inhibition in rats at 0.02 mmol/kg by carrageenan Edema Assay; 20-29
Rattus norvegicus [5] = experiment: The percent inhibition was calculated from the average differences in hind paw volume between the adjuvant injected controls and the adjuvant-injected medicated rats at 0.08 mmol/kg; 40-49
Rattus norvegicus [6] = experiment: The mean increase in paw volume was compared between drug treated groups and placebo to calculate the percent inhibition in rats at 0.08 mmol/kg by carrageenan Edema Assay; 40-49
Rattus norvegicus [7] = experiment: The percent inhibition was calculated from the average differences in hind paw volume between the adjuvant injected controls and the adjuvant-injected medicated rats at 0.08 mmol/kg; 70-79
Rattus norvegicus [8] = experiment: The mean increase in paw volume was compared between drug treated groups and placebo to calculate the percent inhibition in rats at 0.02 mmol/kg by carrageenan Edema Assay; 40-49
Rattus norvegicus [9] = experiment: The mean increase in paw volume was compared between drug treated groups and placebo to calculate the percent inhibition in rats at 0.02 mmol/kg by carrageenan Edema Assay; 30-39; conditions: Rattus norvegicus
Rattus norvegicus [10] = experiment: The percent inhibition was calculated from the average differences in hind paw volume between the adjuvant injected controls and the adjuvant-injected medicated rats at 0.08 mmol/kg; 60-69; conditions: Rattus norvegicus

With `Cc1cccc(C(=O)c2cccc(C(C)CN3CCCCC3CC3CCCCC3)c2)c1` (stereo not given) the inhibition in vivo at 20 µmol/kg (Rattus norvegicus [1]) was 0%.

Compound `CC(CN1CCCCC1CCC1CCCCC1)c1cccc(C(=O)c2ccccc2)c1` (stereo not given) has an inhibition in vivo at 80 µmol/kg (Rattus norvegicus [2]) of 30% and an inhibition in vivo at 80 µmol/kg (Rattus norvegicus [3]) of 90%.

For `COc1ccc(C(O)c2cccc(C(C)CN3CCCCC3CC3CCCCC3)c2)cc1` (stereo not given), the inhibition in vivo at 20 µmol/kg (Rattus norvegicus [1]) was 0%.

`CC(CN1CCCCC1CC1CCCCC1)c1cccc(C(C)(O)c2ccccc2)c1` (stereo not given) showed an inhibition in vivo at 20 µmol/kg (Rattus norvegicus [1]) of 0%.

`CC(CN1CCCCC1CC1CCCCC1)c1cccc(C(O)c2cccc(Cl)c2)c1` (stereo not given) showed an inhibition in vivo at 20 µmol/kg (Rattus norvegicus [1]) of 0%.

`O/N=C(/c1ccccc1)c1cccc(CCN2CCOCC2)c1` showed an inhibition in vivo at 20 µmol/kg (Rattus norvegicus [1]) of 0%.

Compound `CC(CN1CCCCC1CC1CCCCC1)c1cccc(C(O)c2c(Cl)cccc2Cl)c1` (stereo not given) has an inhibition in vivo at 20 µmol/kg (Rattus norvegicus [1]) of 0%.

In the case of `CC(CN1CCCCC1CC1CCCCC1)c1cccc(C(C)c2ccccc2)c1` (stereo not given), the inhibition in vivo at 20 µmol/kg (Rattus norvegicus [1]) is reported as 0%.

For `Cc1ccccc1C(=O)c1cccc(C(C)CN2CCCCC2CC2CCCCC2)c1` (stereo not given), the inhibition in vivo at 20 µmol/kg (Rattus norvegicus [4]) was 20%.

In the case of `CC(CN1CCCCC1)c1cccc(C(=O)c2ccccc2)c1` (stereo not given), the inhibition in vivo at 80 µmol/kg (Rattus norvegicus [2]) is reported as 30% and the inhibition in vivo at 80 µmol/kg (Rattus norvegicus [5]) is reported as 40%.

With `CC(CN1CCCC1CC1CCCCC1)c1cccc(C(=O)c2ccccc2)c1` (stereo not given) the inhibition in vivo at 80 µmol/kg (Rattus norvegicus [6]) was 40% and the inhibition in vivo at 80 µmol/kg (Rattus norvegicus [7]) was 70%.

`NC(c1ccccc1)c1cccc(CCN2CCOCC2)c1` (stereo not given) showed an inhibition in vivo at 20 µmol/kg (Rattus norvegicus [1]) of 0%.

For `CC(CN1CCCCC1CC1CCCCC1)c1cccc(/C(=N\O)c2ccccc2)c1` (stereo not given), the inhibition in vivo at 20 µmol/kg (Rattus norvegicus [8]) was 40% and the inhibition in vivo at 80 µmol/kg (Rattus norvegicus [3]) was 90%.

`Cc1ccc(C(=O)c2cccc(C(C)CN3CCCCC3CC3CCCCC3)c2)cc1` (stereo not given) was tested, and the inhibition in vivo at 20 µmol/kg (Rattus norvegicus [1]) was 0%.

With `OC(c1ccccc1)c1cccc(CCN2CCCCC2CC2CCCCC2)c1` (stereo not given) the inhibition in vivo at 20 µmol/kg (Rattus norvegicus [1]) was 0%.

Work on `CC(CN1CCCCC1CC1CCCCC1)c1cccc(C(N)c2ccccc2)c1` (stereo not given) yielded an inhibition in vivo at 20 µmol/kg (Rattus norvegicus [9]) of 30% and an inhibition in vivo at 80 µmol/kg (Rattus norvegicus [3]) of 90%.

`CC(CN1CCC(CN2CCCCC2)CC1)c1cccc(C(=O)c2ccccc2)c1` (stereo not given) gave an inhibition in vivo at 80 µmol/kg (Rattus norvegicus [6]) of 40% and an inhibition in vivo at 80 µmol/kg (Rattus norvegicus [3]) of 90%.

In the case of `CC(CN1CCCCC1C1CCCCC1)c1cccc(C(=O)c2ccccc2)c1` (stereo not given), the inhibition in vivo at 80 µmol/kg (Rattus norvegicus [2]) is reported as 30% and the inhibition in vivo at 80 µmol/kg (Rattus norvegicus [3]) is reported as 90%.

Work on `CC(CN1CCCCC1CC1CCCCC1)c1cccc(Cc2ccccc2)c1` (stereo not given) yielded an inhibition in vivo at 20 µmol/kg (Rattus norvegicus [4]) of 20% and an inhibition in vivo at 80 µmol/kg (Rattus norvegicus [3]) of 90%.

`COc1ccc(C(=O)c2cccc(C(C)CN3CCCCC3CC3CCCCC3)c2)cc1` (stereo not given) gave an inhibition in vivo at 20 µmol/kg (Rattus norvegicus [4]) of 20% and an inhibition in vivo at 80 µmol/kg (Rattus norvegicus [10]) of 60%.

Compound `CC(CN1CCOCC1)c1cccc(C(N)c2ccccc2)c1` (stereo not given) has an inhibition in vivo at 80 µmol/kg (Rattus norvegicus [6]) of 40% and an inhibition in vivo at 80 µmol/kg (Rattus norvegicus [7]) of 70%.

Compound `CC(CN1CCCCC1CCCC1CCCCC1)c1cccc(C(O)c2ccccc2)c1` (stereo not given) has an inhibition in vivo at 20 µmol/kg (Rattus norvegicus [9]) of 30%.

With `O=C(c1ccccc1)c1cccc(CCN2CCCCC2CC2CCCCC2)c1` (stereo not given) the inhibition in vivo at 20 µmol/kg (Rattus norvegicus [4]) was 20%.

`Cc1ccc(C(O)c2cccc(C(C)CN3CCCCC3CC3CCCCC3)c2)cc1` (stereo not given) was tested, and the inhibition in vivo at 20 µmol/kg (Rattus norvegicus [1]) was 0%.

For `CC(CN1CCCCC1CC1CCCCC1)c1cccc(C(=O)c2ccc(Cl)c(Cl)c2)c1` (stereo not given), the inhibition in vivo at 20 µmol/kg (Rattus norvegicus [1]) was 0%.

Work on `CN(C)CCCNCCc1cccc(C(=O)c2ccccc2)c1` yielded an inhibition in vivo at 80 µmol/kg (Rattus norvegicus [2]) of 30% and an inhibition in vivo at 80 µmol/kg (Rattus norvegicus [5]) of 40%.

`CC(CN1CCCCC1CC1CCCCC1)c1cccc(C(=O)c2ccccc2Cl)c1` (stereo not given) was tested, and the inhibition in vivo at 20 µmol/kg (Rattus norvegicus [9]) was 30% and the inhibition in vivo at 80 µmol/kg (Rattus norvegicus [7]) was 70%.

Work on `CC(CN1CCCCC1CCCC1CCCCC1)c1cccc(C(=O)c2ccccc2)c1` (stereo not given) yielded an inhibition in vivo at 80 µmol/kg (Rattus norvegicus [2]) of 30%.
